# Experimental data as given in patent publication US8653046B2, “Controlling transgene expression across the skin” (ETH Zurich, priority 2009, dated 2014).
# Columns and labels:
# [1] = rodents, cited from earlier work
# TtgA3 (TtgR-E2F4) = experiment: PEACE: SEAP expression after transient co-transfection of pMG10 and pMG19 (PSV40-TtgA3-pA); format: cell-based, Pseudomonas putida DOT-T1E; settings: 48 h
# Excerpt: (§1) Three different transactivators are designed, harboring either the VP16 (TtgA1; pMG11, TtgR-VP16) (Triezenberg S. J. et al., loc. cit.), the p65 (TtgA2; pMG18, TtgR-p65) (Urlinger S., et al., 2000, Gene 247(1-2):103-110) or the human E2F4 (TtgA3; pMG19, TtgR-E2F4) (Akagi K., Kanai M., Saya H., Kozu T., Berns A., 2001, Nucleic Acids Res 29(4):e23) transactivation domains. pMG11, pMG18 or pMG19 are co-transfected with pMG10 (PTtgR1-SEAP-pA) into CHO-K1, HEK-293 as well as primary human fibroblasts and keratinocytes, and SEAP expression is profiled after 48 h of cultivation in the presence or absence of 50 μM phloretin. […] All transactivators mediate similar basal expression levels when phloretin is […] in the medium, but due to their cell-type specificity and graded maximum transcription-initiation capacities, the three transactivators offer a selection of defined expression windows.
# TtgA2 (TtgR-p65) = experiment: PEACE: SEAP expression after transient co-transfection of pMG10 and pMG18 (PSV40-TtgA2-pA); format: cell-based, Pseudomonas putida DOT-T1E; settings: 48 h
# Excerpt: as §1
# [2] = test system: CHO-K1 cells transgenic for constitutive SEAP expression; experiment: Control mice receiving CHO-K1 cells transgenic for constitutive SEAP expression, phloretin skin lotion; format: in vivo, female OF1 mice; settings: constitutive SEAP implant; skin lotion with 42 mg phloretin (0 mg: 6.2±0.43 U/L)
# Experimental: CHO-PEACE8 is microencapsulated in coherent alginate-PLL-alginate capsules and implanted subcutaneously into mice. The back of treated mice is partially shaved and vaseline-based skin lotions (200 μL) containing different amounts of phloretin (0-42 mg) are put on every day. […] Control mice receiving CHO-K1 cells transgenic for constitutive SEAP expression are insensitive to any treatment with phloretin-containing skin lotion (0 mg phloretin: 6.2±0.43 U/L; 42 mg phloretin: 6.02±0.58 U/L).
# CHO-PEACE8 and CHO-SEAP18 (Fluri D. A., Kemmer C., Daoud-El Baba M., Fussenegger M., 2008, J Control Release 131(3):211-219) are encapsulated in alginate-poly-(L-lysine)-alginate beads (400 μm; 200 cells/capsule) using an Inotech Encapsulator Research IE-50R (Recipharm, Basel, Switzerland) according to the manufacturer's instructions and the following parameters: 0.2 mm nozzle, 20 mL syringe at a flow rate of 405 units, nozzle vibration frequency of 1024 Hz and 900 V for bead dispersion. […] Thereafter, the mice are sacrificed, blood samples collected and SEAP levels are quantified in the serum which is isolated using microtainer SST tube according to the manufacturer's instructions (Beckton Dickinson, Plymouth, UK). […]
# TtgA1 (TtgR-VP16) = TtgA1 (TtgR-VP16) (Pseudomonas putida, UniProt Q9AIU0); experiment: Autoregulated PEACE-controlled SEAP expression (pMG13) in CHO-K1; format: cell-based; parameters: expressed in transfected cells; host or cells: CHO-K1 (transient pMG11 or pMG13); also HEK-293, BHK-21, COS-7, HaCaT, HT-1080, NIH/3T3, primary human fibroblasts and keratinocytes; settings: 50 μM phloretin, 48 h
# Chain of TtgA1 (TtgR-VP16) (Q9AIU0 whole entry, added parts left off): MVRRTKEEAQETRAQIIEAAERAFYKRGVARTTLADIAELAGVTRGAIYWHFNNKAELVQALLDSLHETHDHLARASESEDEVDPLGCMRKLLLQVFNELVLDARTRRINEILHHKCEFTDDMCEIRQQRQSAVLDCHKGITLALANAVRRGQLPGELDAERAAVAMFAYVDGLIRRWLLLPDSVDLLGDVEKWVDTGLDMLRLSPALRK
# TtgK (TtgR-KRAB) = experiment: PEACE-ON: SEAP expression of CHO-K1 co-transfected with pMG28 (PSV40-TtgK-pA) and pMG27 (PTtgRON-SEAP-pA); format: cell-based; settings: phloretin 0-50 μM, 48 h
# Experimental: (C) SEAP expression profiles of CHO-K1 transiently transfected with pMG28 (PSV40-TtgK-pA) and pMG27 (PTtgRON-SEAP-pA) and cultivated for 48 h in the presence of different phloretin concentrations (0-50 μM).
# By fusing TtgR to the human Kruppel-associated box-protein (KRAB) (Moosmann P., Georgiev O., Thiesen H. J., Hagmann M., Schaffner W., […], Biol Chem 378(7):669-677) a synthetic mammalian transrepressor (TtgK) is created, which is able to bind and inhibit transcription from a promoter (PTtgRON) harboring eight OTtgR-elements located 3′ of a constitutive simian virus 40 promoter (PSV40), in a phloretin-responsive manner (FIGS. 10A and B). Co-transfection of the constitutive TtgK expression vector pMG28 (PSV40-TtgK-pA) and pMG27 (PTtgRON-SEAP-pA) encoding a TtgK-specific PTtgRON-driven SEAP expression unit, results in low-level, basal SEAP expression (2.3±0.26 U/L). […]
# [3] = Stability (half-live) of phloretin in culture medium, quantified via CHO-PEACE8 SEAP calibration curve; format: physicochemical
smiles,measurement,setting,value
"O=C(CCc1ccc(O)cc1)c1c(O)cc(O)cc1O [phloretin, 3-[4-hydroxyphenyl]-1-[2,4,6-trihydroxyphenyl]-1-propanone]",half-life in vivo,[1],rather short half-life in vivo
same,systemic distribution after dermal administration,[1]; dermal administration,systemically spread
same,SEAP Production,"TtgA3 (TtgR-E2F4); CHO-K1, phloretin 50 μM",0.26 ± 0.08 U/L
same,SEAP Production,"TtgA3 (TtgR-E2F4); HEK-293, phloretin 50 μM",0.2 ± 0.016 U/L
same,SEAP Production,"TtgA3 (TtgR-E2F4); HaCaT, phloretin 50 μM",0.5 ± 0.05 U/L
same,SEAP Production,"TtgA2 (TtgR-p65); CHO-K1, phloretin 50 μM",0.8 ± 0.05 U/L
same,SEAP Production,"TtgA2 (TtgR-p65); HEK-293, phloretin 50 μM",1.9 ± 0.1 U/L
same,SEAP Production,"TtgA2 (TtgR-p65); HaCaT, phloretin 50 μM",0.5 ± 0.05 U/L
same,SEAP Production,"TtgA2 (TtgR-p65); human primary fibroblasts, phloretin 50 μM",0.2 ± 0.02 U/L
same,SEAP Production,"TtgA2 (TtgR-p65); human primary keratinocytes, phloretin 50 μM",0.3 ± 0.02 U/L
same,SEAP level in control mice,[2],6.02±0.58 U/L
same,SEAP expression (autoregulated circuit),TtgA1 (TtgR-VP16),completely repressed
same,SEAP expression dose response (PEACE-ON),TtgK (TtgR-KRAB),dose-dependent induction of SEAP expression
same,functional half-live,"[3]; cell-free culture medium, levels determined over 64 h",70 h
same,half-live,[3]; mammalian cell culture systems,70 h
